Reference: patent US8828966B2, “Method for treatment of macular degeneration by modulating P2Y12 or P2X7 receptors” (priority 2006, dated 2014)

How the values were obtained:
ARPE-19 cells [1] = assay: Lysosomal pH (pHL) with LysoSensor Yellow/Blue, high through-put screen; format: cell-based, human; conditions: for effect on pHL of cells treated with tamoxifen: tamoxifen concentration not stated, A68930 and A77636 at 1 μM; for effect on pHL, agent alone: cells without other alkalinizing agent, NH4Cl 10 mM, BAF 200 nM, CHQ 20 μM, CFTR-172 10 μM, LDL 10 μg/ml, others not given
Experimental: Lysosensor Yellow/Blue co-localized with the Lysotracker Red dye in small vesicles, with a distribution consistent with lysosomal origin. Measurements of pHL were performed using a high throughput screening (HTS) protocol to maximize output and minimize variation using ARPE-19 cells in 96 well plates. […] Loading for 5 min. at 23° C. with 5 μM lysosensor, followed by 15 min. for internalization, produced stable and reproducible results.
The ratio was converted to pH by calibrating with KCl buffered to pH 4.0-6.0 in the presence of monensin and nigericin. Calibration indicated a baseline pH of 4.4 to 4.5, supporting lysosomal localization. […] NH4Cl decreased the ratios slightly at 380 nm. Nevertheless, absent the addition of the dye, none of these compounds, or any others, altered the fluorescent signal at 340 or 380 nm, showing a specificity of the measured change to pHL. […] This quantification is necessary to predict the potential effectiveness of acidifying drugs to restore lysosomal enzyme activity.
Extensive trials determined that the optimal response is obtained with 5 minute dye loading and 15 minute post-incubation. […] All reagents were from Sigma Chemical Corp. unless otherwise indicated.
In general, each condition below used 3-12 independent wells per plate, in 3-6 separate plates. As levels from individual plates varied, data was normalized to the mean pHL for control wells from each plate. Fluorescent ratios were converted to pH following calibration performed on each plate as described. Incubation with Lysosensor Yellow/Blue was kept constant and all measurements were performed 15 min after removal of dye from the bath to ensure continuity. Significance was determined with a one-way ANOVA and Tukey post test. Drugs were always tested on control cells to ensure modification of healthy RPE cells was minimal, and cells were not exposed to dye to make sure effects were specific. All background was subtracted from the fluorescence excited at 340 and 380 nm independently before calculation of the ratio.

ARPE-19 cells [2] = assay: FACS analysis of autofluorescence (excited at 488 nm); format: cell-based, human; conditions: for effect on autofluorescence enhanced by POS+CHQ: photoreceptor outer segments plus 10 μM chloroquine, 7 days
Description: To maintain a balance between the synthesis, degradation, and subsequent recycling of cellular products there are a variety of autophagic responses, but all involve degradation of intracellular components via the lysosome. Typically, autophagy involves the formation of a membrane around a targeted region of the cell, separating the contents from the rest of the cytoplasm, and then the resultant vesicle fuses with a lysosome and the contents are subsequently degraded.

[3] = system: RPE cells from ABCA4−/− mice; assay: Lysosomal pH in fresh RPE cells from ABCA4-/- mice, drug added to the cells; format: cell-based, mouse; conditions: RPE cells from 11-month-old ABCA4−/− mice
Description: Measurement of pHL from Isolated Mouse Cells: Based on protocols that are used extensively to measure Ca2^+ from retinal ganglion cells (Zhang et al. Invest. Ophthalmol. Vis. Sci. 46:2183-2191 (2005)), cells were fixed on coverslips and mounted on Nikon Eclipse inverted microscope, visualized with a x40 oil-immersion fluorescence objective, and perfused with control solution. The field was alternatively excited at 340 nm and 380 nm, and fluorescence >515 emitted from the region of interest surrounding individual cells is measured with a CCD camera and Imagemaster software (Photon Technologies International, Inc). After baseline levels were recorded for 3-5 minutes in the absence of dye, solution was replaced with 5 μM Lysosensor Yellow/Blue dye for 5 minutes before washing for an additional 15 minutes. The ratios in the control solutions were recorded, and then acidifying drugs were added. Ratios were converted to pH with monensin/nigericin as above.
As a result, lysosomal pH increases early, and is measured in ABCA4^−/− mice at 6, 12 and 18 weeks from RPE cells within 5 hours of sacrifice. […] However, the signal/noise from measurements of isolated cells with the plate reader is not acceptable. Instead, this signal is measured using the microscope-based imaging system, previously used successfully to measure Ca2^+ from freshly isolated retinal ganglion cells (Zhang et al., supra, 2005). […]

ABCA4−/− mice = assay: Oral P2Y12 inhibitor in ABCA4-/- mice, lysosomal pH of RPE cells; format: in vivo, mouse; conditions: 9-11 month old mice, 50 mg/kg orally, single dose, cells removed 4 hrs later
Experimental: In this example the selected P2Y12 inhibitor was clopidogrel (commercially available as Plavix), but the invention need not be so limited, and other P2Y12 inhibitors, such as AR-C66096, may be used. The clopidogrel was given orally at 50 mg/kg and the pH measured from RPE cells that were removed 4 hrs later.

cAMP in the RPE = assay: Effect of ATP on cAMP in the RPE; format: cell-based
Experimental: P2Y11 Receptor: The initial investigation screened agonists that act at multiple P2 receptors for their effect on pHL using the high through-put assay. BzATP, ATP, ATPγS, ADPγS and 2 MeSATP and AR-C67085 were added at 10, 30, 100 and 300 μM, respectively, and relative actions were compared with published information for the human P2Y11 receptor (von Kugelgen et al, supra, 2000; Communi et al., supra, 1997; Communi et al., Br. J. Pharmacol. 128:1199-206 (1999)). ATP was added in the presence of ecto-ATPase/eNPP inhibitors βγmATP and ARL67156 (100 μM) since they prevent degradation of ATP in these cells. Receptor involvement was confirmed with antagonists suramin, reactive blue 2 and pyridoxal-phosphate-6-azophenyl-2′,4′-disulphonic acid (PPADS; all at 0.1, 1, 10 and 100 μM). Since the finding that ATP had the ability to elevate cAMP in the RPE was novel, the effect of ATP on cAMP was measured directly using the cAMP-Screen Direct Chemiluminescent Immunoassay System kit from Applied Biosystems using an HTS luminometer to measure […]. The role of cAMP was confirmed by inhibiting pKA with 100 μM Rp-8-Br-cAMPS.

ARPE-19 cells [4] = assay: Clearance (degradation) of calcein-labeled photoreceptor outer segments; format: cell-based, human
Experimental: Outer Segment Degradation: Bovine retinas were homogenized in 20% sucrose with 130 mM NaCl, 20 mM Tris-HCl, 10 mM glucose, 5 mM taurine and 2 mM MgC12 (pH 7.20). The homogenate was placed in ultracentrifuge tubes with 20%, 27%, 33%, 41%, 50% and 60% sucrose, respectively, and centrifuged for 70 minutes at 28,000 rpm on a SW28 rotor (4° C.). The supernatant was filtered, diluted in 0.02M Tris-HCl buffer (pH 7.2) and centrifuged at 13,000×g for 10 minutes (4° C.). The pellet was resuspended in […], 0.1 mM NaCl and 2.5% sucrose. Outer segments were loaded with 5 μM calcein-AM in PBS for 10 minutes, and spun 2× at 14,000 rpm to wash. Outer segments were then diluted 1:100 in growth medium and added to ARPE-19 cells in 96-well plates.
Isolated bovine outer segments loaded with calcein were supplied to ARPE-19 cells in 96-well plates for 2 hrs, washed 3× and maintained in control medium for an additional 3 hr (see Methods). […] Promising compounds were examined for their effects on cells treated with A2E, although the restoration of pHL is unlikely to remove A2E itself. However, other components of the outer segments are amendable to digestion by lysosomal enzymes at the appropriate pHL, and acidification could minimize the secondary effect of this accumulation.

[5] = system: primary cultures of bovine RPE cells; assay: Lysosomal pH in primary bovine RPE cultures; format: cell-based
Experimental: Isolation of Bovine and Mouse RPE Cells: The bovine RPE-choroid and sclera were removed, incubated in 2.5% trypsin at 37° C. in 5% CO2 for 30 min, after which RPE sheets are dissected, washed and plated in 96-well plates with 10% serum medium. Mouse eyes were incubated in DMEM for 3 hrs at room temperature (RT), then in 0.1% trypsin and 0.4 mg/ml collagenase IV with 1 mM EDTA for 45 min at RT. RPE sheets were dissected out, washed, and incubated with 0.25% trypsin/0.02% EDTA in order to obtain a suspension of single cells, then grown as above.
HTS Measurement of pHL: ARPE-19 cells were grown in 96-well plates, rinsed 3× with isotonic solution (IS; prepared from NaCl 105 mM, KCl 5 mM, HEPES Acid 6 mM, Na HEPES 4 mM, NaHCO3 5 mM, mannitol 60 mM, glucose 5 mM, MgCl2 0.5 mM, CaCl2 1.3 mM) and incubated with 5 μM LysoSensor Yellow/Blue (Invitrogen Corp.) diluted with IS. Extensive trials determined that the optimal response is obtained with 5 minute dye loading and 15 minute post-incubation. Fluorescence was measured with a Fluoroskan 96-well Plate Reader (Thermo Electron Corp.). pHL was determined from the ratio of light excited at 340 nm vs 380 nm ([…] em). pHL was calibrated by exposing cells to 10 μM H^+/Na^+ ionophore monensin and 20 μM H^+/K^+ ionophore nigericin in 20 MES, 110 KCl and 20 NaCl at pH 3.0-7.0 for 15 min. All reagents were from Sigma Chemical Corp. unless otherwise indicated.

[6] = system: primate model of the disease; conditions: delivered orally; cited from earlier work

## CCOc1ccc(Nc2ccc(/C(=C3C=C/C(=[N+](/CC)Cc4cccc(S(=O)(=O)[O-])c4)C=C/3C)c3ccc(N(CC)Cc4cccc(S(=O)(=O)[O-])c4)cc3C)cc2)cc1.[Na+] [BBG]
ARPE-19 cells [1]; cells stimulated with BzATP
  effect on pHL rise by P2X7 agonist BzATP: prevented this rise
ARPE-19 cells [2]
  effect on autofluorescence enhanced by POS+CHQ: reduced this enhanced autofluorescence

## NC[C@@H]1O[C@H](c2ccccc2)Cc2c1ccc(O)c2O [A68930]
ARPE-19 cells [1]
  effect on pHL of cells treated with tamoxifen: decreased lysosomal pH
[3]
  effect on pHL (ratio 340 to 380 nm): decreased pHL

## COC(=O)[C@H](c1ccccc1Cl)N1CCc2sccc2C1 [clopidogrel]
ABCA4−/− mice
  lysosomal pHL in RPE cells after single oral dose: reduced

## Nc1ncnc2c1ncn2[C@@H]1O[C@H](COP(=O)(O)OP(=O)(O)OP(=O)(O)O)[C@@H](O)[C@H]1O [ATP]
ARPE-19 cells [1]
  effect on lysosomal pH, conditions not stated: acidify lysosomes
cAMP in the RPE
  effect on cAMP in the RPE: elevate cAMP

## CCCSc1nc(N)c2ncn([C@@H]3O[C@H](COP(=O)([O-])OP(=O)([O-])C(F)(F)P(=O)([O-])[O-])[C@@H](O)[C@H]3O)c2n1.[Na+].[Na+].[Na+].[Na+] [AR-C66096, 2-(Propylthio) adenosine-5′-O-(β,γ-difluoromethylene) triphosphate tetrasodium salt]
ARPE-19 cells [1]; cells stimulated with MeSADP
  effect on pHL elevation by P2Y12 agonist MeSADP: inhibited these actions and restored lysosomal acidity
ARPE-19 cells [2]
  effect on autofluorescence enhanced by POS+CHQ: reduced this enhanced auto-fluorescence to near control levels

## CCNC(=O)[C@H]1O[C@@H](n2cnc3c(N)nc(NCCc4ccc(CCC(=O)O)cc4)nc32)[C@H](O)[C@@H]1O [CGS21680]
ARPE-19 cells [1]; 10 μM tamoxifen
  effect on pHL of cells treated with 10 μM tamoxifen: Over half of the increase triggered by 10 μM tamoxifen was reversed
ARPE-19 cells [1]; chloroquine (20 μM with CGS21680 100 nM)
  effect on pHL of cells treated with chloroquine: decreased the lysosomal alkalinization
ARPE-19 cells [1]
  effect on pHL of cells treated with tamoxifen: acidified the lysosomes
ARPE-19 cells [4]; 100 nM CGS with 20 μM CHQ, 24 hrs
  degradative capacity (outer segment clearance) in chloroquine-treated cells: restored the degradative capacity

## CC/C(=C(\c1ccccc1)c1ccc(OCCN(C)C)cc1)c1ccccc1 [tamoxifen]
ARPE-19 cells [1]
  time for elevated lysosomal pH to reach a plateau: 10-15 minutes
  effect on pHL, agent alone: raised pHL
[5]
  effect on pHL, agent alone: increased pHL
ARPE-19 cells [4]; after 24 hrs
  clearance of calcein-labeled outer segments, alkalinizing agent alone: slowed clearance of outer segments

## CCN(CC)CCCC(C)Nc1ccnc2cc(Cl)ccc12 (centres unmarked) [chloroquine]
ARPE-19 cells [1]
  effect on pHL, agent alone: pH was elevated
ARPE-19 cells [2]; 10 μM for 7 days
  autofluorescence, agent alone: increased autofluorescence

## NC[C@@H]1O[C@H](C23CC4CC(CC(C4)C2)C3)Cc2c1ccc(O)c2O [A77636]
ARPE-19 cells [1]
  effect on pHL of cells treated with tamoxifen: decreased lysosomal pH
[6]
  Parkinsonian activity: reduces Parkinsonian activity
[3]
  effect on pHL (ratio 340 to 380 nm): decreased pHL

## Nc1ncnc2c1ncn2[C@@H]1O[C@H](CO)[C@@H](O)[C@H]1O [adenosine]
ARPE-19 cells [1]
  effect on pHL of cells treated with tamoxifen: reduce the pHL
[5]
  effect on pHL of bovine cells treated with tamoxifen: acidified the lysosomes

## CCNC(=O)[C@H]1O[C@@H](n2cnc3c(N)ncnc32)[C@H](O)[C@@H]1O [NECA, 5′-(N-ethylcarboxamido) adenosine]
ARPE-19 cells [1]
  effect on pHL of cells treated with tamoxifen: reversed lysosomal alkalinization by tamoxifen
[5]
  effect on pHL of bovine cells treated with tamoxifen: not quite significant
